Columns and labels:
cyclo-oxygenase = assay: In vitro cyclo-oxygenase activity: malondialdehyde production in guinea pig lung homogenate incubated with arachidonic acid and cofactors; type: biochemical
Experimental: (§1) These new products are active in vitro as inhibitors of cyclo-oxygenase (malondialdehyde production test in guinea pig lung homogenates) and/or of the 5-lipo-oxygenase (A23187 stimulated rabbit leucocytes test).
The cyclooxygenase activity is determined according to the method of Luzzani et al. (Luzzani, F., et al. INT. J. TISS. REAC. X(2); 79-83, 1988), by monitoring the production of malondialdehyde in a guinea pig lung homogenate incubated in the presence of arachidonic acid and cofactors.
(§2) In Table I below the results of the comparisons of 8 inventive compounds with 3 prior art compounds are shown. In column "CO" the data concerning cyclo-oxygenase, and in column "5-LO" those concerning 5-lipo-oxygenase are shown.

5-lipo-oxygenase = biological target: T1, 5-lipo-oxygenase (Oryctolagus cuniculus, UniProt G1SNX0); assay: In vitro 5-lipo-oxygenase activity: formation of leukotriene B4 from [14C] arachidonic acid in calcium ionophore A23187 stimulated rabbit leukocytes (radiometric T.L.C. assay); type: cell-based; details: read-out: 5-LO (% of inhibition at 10 µM)
T1 construct: a preparation of calcium ionophore A23187 stimulated rabbit leukocites; endogenous in cells; host or cells: rabbit leukocytes
T1 sequence (G1SNX0 1-674): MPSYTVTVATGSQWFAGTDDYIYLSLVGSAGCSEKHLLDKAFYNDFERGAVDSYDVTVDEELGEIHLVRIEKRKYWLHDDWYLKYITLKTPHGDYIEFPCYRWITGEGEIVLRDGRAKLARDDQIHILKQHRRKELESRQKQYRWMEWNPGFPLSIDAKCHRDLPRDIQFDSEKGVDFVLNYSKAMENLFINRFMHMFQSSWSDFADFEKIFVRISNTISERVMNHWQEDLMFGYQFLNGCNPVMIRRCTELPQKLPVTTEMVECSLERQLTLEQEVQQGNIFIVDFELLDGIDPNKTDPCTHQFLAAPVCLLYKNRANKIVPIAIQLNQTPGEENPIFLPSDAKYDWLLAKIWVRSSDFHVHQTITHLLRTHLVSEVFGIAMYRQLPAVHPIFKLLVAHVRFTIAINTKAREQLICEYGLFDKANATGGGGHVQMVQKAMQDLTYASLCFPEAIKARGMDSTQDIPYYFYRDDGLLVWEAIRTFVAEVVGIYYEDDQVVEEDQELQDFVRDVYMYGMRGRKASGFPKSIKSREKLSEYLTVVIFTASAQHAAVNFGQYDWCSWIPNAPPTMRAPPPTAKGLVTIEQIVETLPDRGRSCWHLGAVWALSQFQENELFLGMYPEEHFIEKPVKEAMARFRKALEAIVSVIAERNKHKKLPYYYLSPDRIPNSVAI
Experimental: as §1
The formation of leukotriene B₄ from [¹⁴C] arachidonic acid in a preparation of calcium ionophore A23187 stimulated rabbit leukocites is measured by means of a slightly modified radiometric T.L.C.assay based on published procedures (Beetens, J.R. et al. BIOCHEM. PHARMACOL 35 (6); 883, 1986).
as §2

Structure (SMILES)	CO (% of inhibition at 10 µM) (cyclo-oxygenase) [%]	inhibition at 10 µM (5-lipo-oxygenase) [%]
COc1ccc(O)c(CC#Cc2ccccc2)c1 [CO/1828, 2-(3-Phenyl-2-propynyl)-4-metoxyphenol]	50	57
Oc1cccc(CC#Cc2ccccc2)c1O [CO:1841, 3-(3-Phenyl-2-propynyl)pyrocatechol]	26	90
COc1ccc(O)c(C(C)C#Cc2ccccc2)c1 (stereo not drawn) [CO/1863, 2-(4-Phenyl-3-butyne-2-yl)-4-methoxyphenol]	23	46
CCCCCCC#CCc1cc(OC)ccc1O [CO/1837, 4-Methoxy-2-(2-nonynyl)phenol]	52	92
COc1cccc(CC#Cc2ccccc2)c1O [CO/1826, 2-(3-Phenyl-2-propynyl)-6-methoxyphenol]	66	52
COc1ccc2c(c1)c(CC(=O)O)c(C)n2C(=O)c1ccc(Cl)cc1 [INDOMETHACIN, reference compound]	98	0
CC(C#Cc1ccccc1)c1cc(OCc2ccccc2)ccc1O (stereo not drawn) [CP/1864, 4-Benzyloxy-2-(4-phenyl-3-butyne-2-yl)phenol]	0	68
CC(Cc1ccc(O)c(O)c1)C(C)Cc1ccc(O)c(O)c1 (stereo not drawn) [NORDIHYDROGUAIARETIC ACID, reference compound]	5	92
NC1=NN(c2cccc(C(F)(F)F)c2)CC1 [BW 755 c, reference compound]	30	25

Source: patent publication EP0401517A1, “Substituted 2-alkynylphenols with anti-inflammatory action, a process for their preparation and pharmaceutical compositions thereof” (CAMILLO CORVI S.p.A., priority 1989, dated 1990)
